# Measured values: patent publication US6110939A, “(Benzimidazolyl- and imidazopyridinyl) containing 1-(1,2-disubstituted piperidinyl) derivatives” (Janssen Pharmaceutica N.V., priority 1995, dated 2000)
# Tested on: substance P induced relaxation of the pig coronary arteries
# Test: Antagonism of substance P induced relaxation of the pig coronary arteries
# Type: cell-based
# Details: Sus scrofa, 0.5 h; test compound 1 × 10^-8; response to 10^-9 M substance P; 30 min incubation
# Method: Antagonism of substance P induced relaxation of the pig coronary arteries
# Segments of coronary arteries taken from pigs (killed by injection of an overdose of sodium pentobarbital) were inverted and mounted for recording of isometric tension in organ baths (volume 20 ml) with the endothelium at the outside. The preparations were bathed in Krebs - Henseleit solution. The solution was kept at 37° C. and gassed with a mixture of O2 /CO2 (95/5). After stabilisation of the preparations, prostaglandin F2α (10^-5 M) was administered to induce a contraction. This was repeated until contractile responses became stable. Then prostaglandin F2α was again administered and substance P (3×10^-10 M and 10^-9 M cumulatively) was added. […] After washing away the agonists, a known concentration of a compound of formula (I) was added. After an incubation period of 30 minutes, prostaglandin F2α (10^-5 M) and the same concentrations of substance P as described above were again administered in the presence of the compound to be tested.
row,SMILES,inhibition at 0.01 µM [%]
1,Cc1cc(C)cc(C(=O)N2CC[C@@H](N3CCC(Nc4nc5ccccc5n4Cc4cccs4)CC3)C[C@@H]2Cc2ccccc2)c1 (relative stereo) [Compound 8],14.7

# Same assay, conditions: Sus scrofa, 0.5 h; test compound 3 × 10^-8; response to 10^-9 M substance P; 30 min incubation
row,SMILES,inhibition at 0.03 µM [%]
1,Cc1cc(C)cc(C(=O)N2CC[C@@H](N3CCC(Nc4nc5ccccc5n4Cc4ccccc4F)CC3)C[C@@H]2Cc2ccccc2)c1 (relative stereo) [Compound 4],10.2
2,Cc1ccc(Cn2c(CC3CCN([C@@H]4CCN(C(=O)c5cc(C(F)(F)F)cc(C(F)(F)F)c5)[C@H](Cc5ccccc5)C4)CC3)nc3ccccc32)o1 (relative stereo) [Compound 42],96.9
3,Cc1cc(C)cc(C(=O)N2CC[C@@H](N3CCC(Cc4nc5ccccc5n4Cc4csc(C)n4)CC3)C[C@@H]2Cc2ccccc2)c1 (relative stereo) [Compound 12],92.3
4,Cc1ccc(Cn2c(NC3CCN([C@@H]4CCN(C(=O)c5cc(C(F)(F)F)cc(C(F)(F)F)c5)[C@@H](Cc5ccccc5)C4)CC3)nc3ccccc32)o1 (relative stereo) [Compound 29],65.6
5,"CCOCCn1c(NC2CCN([C@@H]3CCN(C(=O)c4cc(C(F)(F)F)cc(C(F)(F)F)c4)[C@@H](Cc4ccccc4)C3)CC2)nc2ccccc21 (relative stereo) [Compound 6, (±)-trans-1-[1,3-bis(trifluoromethyl)-benzoyl]-4-[4-[[1-(2-ethoxyethyl)-1H-benzimidazol-2-yl]amino]-1-piperidinyl]-2-(phenylmethyl)piperidine]",85.3
6,O=C(c1cc(C(F)(F)F)cc(C(F)(F)F)c1)N1CC[C@@H](N2CCC(Sc3nc4ccccc4n3Cc3ccc(F)cc3)CC2)C[C@@H]1Cc1ccccc1 (relative stereo) [Compound 35],88.5
7,CCOCCn1c(NC2CCC(Cc3ccccc3)N(C(=O)c3cc(C(F)(F)F)cc(C(F)(F)F)c3)CC2)nc2ccccc21 (stereo not shown) [Compound 150],98.1
8,CCOCCn1c(NC2CCCN(C(=O)c3cc(C(F)(F)F)cc(C(F)(F)F)c3)C(Cc3ccccc3)C2)nc2ccccc21 (stereo not shown) [Compound 149],12.7
9,O=C(c1cc(C(F)(F)F)cc(C(F)(F)F)c1)N1CC[C@@H](N2CCC(Nc3nc4ccccc4n3Cc3ccc(F)cc3)CC2)C[C@@H]1Cc1ccccc1 (relative stereo) [Compound 27],92.8
10,Cc1cc(C)cc(C(=O)N2CC[C@@H](N3CCC(Nc4nc5ccccc5n4Cc4cscn4)CC3)C[C@@H]2Cc2ccccc2)c1 (relative stereo) [Compound 10],89.3
11,Cc1ncc(Cn2c(NC3CCN([C@@H]4CCN(C(=O)c5cc(C(F)(F)F)cc(C(F)(F)F)c5)[C@@H](Cc5ccccc5)C4)CC3)nc3ccccc32)o1 (relative stereo) [Compound 16],88.8
12,O=C(c1cc(C(F)(F)F)cc(C(F)(F)F)c1)N1CC[C@@H](N2CCC(Cc3nc4ccccc4n3Cc3ccc(F)cc3)CC2)C[C@H]1Cc1ccccc1 (relative stereo) [Compound 40],93.3
13,Cc1cc(C)cc(C(=O)N2CC[C@H](N3CCC(Nc4nc5ccccc5n4Cc4cscn4)CC3)C[C@@H]2Cc2ccccc2)c1 (relative stereo) [Compound 9],78.1
14,CCOCCn1c(N[C@@H]2CCN(C(=O)c3cc(C(F)(F)F)cc(C(F)(F)F)c3)[C@H](Cc3ccc(F)c(F)c3)C2)nc2ccccc21 (relative stereo) [Compound 148],100
15,Cc1ccc(Cn2c(NC3CCN([C@@H]4CCN(C(=O)c5cc(C(F)(F)F)cc(C(F)(F)F)c5)[C@H](Cc5ccccc5)C4)C3)nc3cccnc32)o1 (stereo partly shown) [Compound 30],87.5

# Same assay, conditions: Sus scrofa, 0.5 h; test compound 3 × 10^-9; response to 10^-9 M substance P; 30 min incubation
row,SMILES,inhibition at 0.003 µM [%]
1,"Cc1ncc(Cn2c(NC3CCN([C@@H]4CCN(C(=O)Nc5cc(C(F)(F)F)cc(C(F)(F)F)c5)[C@@H](Cc5ccccc5)C4)CC3)nc3ccccc32)o1 (racemic) [Compound 52, (±)-trans-N-[3,5-bis(trifluoromethyl)phenyl]-4-[4-[[1-[(2-methyl-5-oxazolyl)methyl]-1H-benzimidazol-2-yl]amino]-1-piperidinyl]-2-(phenylmethyl)-1-piperidinecarboxamide]",6.3
2,Cc1ccc(Cn2c(CC3CCN([C@@H]4CCN(C(=O)c5cc(C(F)(F)F)cc(C(F)(F)F)c5)[C@@H](Cc5ccccc5)C4)CC3)nc3ccccc32)o1 (relative stereo) [Compound 41],82.6
3,Cc1ncc(Cn2c(NC3CCN([C@@H]4CCN(C(=O)c5sc(C)nc5C)[C@H](Cc5ccccc5)C4)CC3)nc3ccccc32)o1 (relative stereo) [Compound 65],9.7
4,Cc1ccc(Cn2c(NC3CCN([C@@H]4CCN(C(=O)c5cc(C(F)(F)F)cc(C(F)(F)F)c5)[C@@H](Cc5ccccc5)C4)C3)nc3cccnc32)o1 (stereo partly shown) [Compound 31],90.6
5,CCOCCn1c(N[C@@H]2CCN(C(=O)c3cc(C(F)(F)F)ccc3C(F)(F)F)[C@@H](Cc3ccc(Cl)cc3)C2)nc2ccccc21 (relative stereo) [Compound 144],88.4
6,Cc1ccc(Cn2c(C(O)C3CCN([C@H]4CCN(C(=O)c5cc(C(F)(F)F)cc(C(F)(F)F)c5)[C@@H](Cc5ccccc5)C4)CC3)nc3ccccc32)o1 (stereo partly shown) [Compound 22],89.4
7,Cc1cc(C)cc(C(=O)N2CC[C@@H](N3CCC(Nc4nc5ccccc5n4Cc4ccc(C)o4)CC3)C[C@@H]2Cc2ccccc2)c1 (relative stereo) [Compound 32],20.1
8,Cc1ncc(Cn2c(N[C@@H]3CCN(C(=O)c4ccco4)[C@@H](Cc4ccccc4)C3)nc3ccccc32)o1 (relative stereo) [Compound 46],17.6
9,Cc1ccc(Cn2c(NC3CCN([C@H]4CCN(C(=O)c5cc(C(F)(F)F)cc(C(F)(F)F)c5)[C@@H](Cc5ccccc5)C4)CC3)nc3cccnc32)o1 (relative stereo) [Compound 19],79.5
10,Cc1ncc(Cn2c(NC3CCN([C@@H]4CCN(C(=O)c5cccs5)[C@@H](Cc5ccccc5)C4)CC3)nc3ccccc32)o1 (relative stereo) [Compound 56],8.7
11,Cc1ncc(Cn2c(OC3CCN([C@@H]4CCN(C(=O)c5cc(C(F)(F)F)cc(C(F)(F)F)c5)[C@@H](Cc5ccccc5)C4)CC3)nc3ccccc32)o1 (relative stereo) [Compound 37],70.5
12,CCOCCn1c(N[C@@H]2CCN(C(=O)c3cc(C(F)(F)F)cc(C(F)(F)F)c3)[C@H](Cc3ccc(C(F)(F)F)cc3)C2)nc2ccccc21 (relative stereo) [Compound 146],51.8
13,Cc1ncc(Cn2c(NC3CCN([C@@H]4CCN(C(=O)c5cc(Cl)cc(Cl)c5)[C@@H](Cc5ccccc5)C4)CC3)nc3ccccc32)o1 (relative stereo) [Compound 55],28.1
14,Cc1ncc(Cn2c(OC3CCN([C@@H]4CCN(C(=O)c5cc(C(F)(F)F)cc(C(F)(F)F)c5)[C@H](Cc5ccccc5)C4)CC3)nc3ccccc32)o1 (relative stereo) [Compound 36],66

# Same assay, conditions: test compound 3 × 10^-8; response to 10^-9 M substance P; 30 min incubation
row,SMILES,% inhibition [%]
1,"CCOCCn1c(NC2CCN(C3CCN(C(=O)c4cc(C(F)(F)F)cc(C(F)(F)F)c4)C(Cc4ccccc4)C3)C(Cc3ccccc3)C2)nc2ccccc21 (stereo not drawn) [Compound 14, 2α,4β-trans-1-[3,5-bis(trifluoromethyl)benzoyl]-4-[4-[[1-(2-ethoxyethyl)-1H-benzimidazol-2-yl]amino]-2-(phenylmethyl)-1-piperidinyl]-2-(phenylmethyl)piperidine]",53.3
